The test system of data set [1] is Huh7 cells transiently transfected with pcDNAFIXwt. Description: Effects of protein degradation inhibitors on the intracellular level of FIXwt (ELISA on lysates). The class given is cell-based, human. The conditions noted are these: for Intracellular FIX level (mean ± SE): 6 h treatment, 36 h after transfection, % relative to nontreated cell lysates, NH4Cl 50 mM/l, beta-lactone 10 μM/l, brefeldin A 10 μg/ml. The procedure: Huh7 cells (1×10^6 cells/dish) were transiently transfected at 80% confluence in 60 mm culture dishes. Thirty-six hours after transfection, the cells were incubated in FBS-free medium containing 10 μM/l of clasto-lactacystin β-lactone (Calbiochem, France Biochem, Meudon, France), 50 mM/l of ammonium chloride, or 10 μg/ml of brefeldin A (Sigma Aldrich). The medium was renewed every 2 hours.
The cell lysates were harvested 6 h later and prepared in 120 μl of cold lysis buffer. The FIX antigen concentration was quantified on the lysates by means of an ELISA assay. The results are expressed as percentage of values obtained relative to the nontreated control lysates. The comparisons were carried out by application of Fisher's test using the Stat View® software.
Thirty-six hours after transfection, the inhibitors were added to the culture medium and left for 6 h. The intracellular FIX concentrations were measured after treatment by means of an ELISA assay (the values are expressed as % of FIX relative to the values obtained in the nontreated cell lysates). The results are brought together in table 1 below and correspond to three independent transfections.
(ELISA stands for enzyme-linked immunosorbent assay.)

Data set [2] relates to factor IX-deficient plasma. Description: Specific coagulation activity, one-step chronometric aPTT test, related back to Benefix (aPTT/ELISA). The class given is biochemical. Here is the method:
The term “biologically active FIX” is intended to mean a factor IX of which the specific coagulation activity is at least 100%. The recombinant FIX secreted into the culture medium of the present invention preferably has a specific coagulation activity of from 150 to 200%, preferably from 170 to 200%. The specific coagulation activity of the factor IX is determined by means of the technique termed chronometric time technique by measuring the partial thromboplastin time (PTT) or activated partial thromboplastin time (aPTT) which is a semi-overall test of blood coagulation which uses a coagulometer. The test used is detailed in the examples. In this test, Benefix® has a specific activity of 100%.
The specific coagulation activity of the factor IX is determined using the technique termed chronometric time technique by measuring the partial thromboplastin time (PTT) or activated partial thromboplastin time (aPTT) according to K. J. Smith et al., Blood, 72, 1269-1277 (1988), which is a semi-overall one-step blood coagulation test with an MDA II® or else Destiny Max coagulometer (Trinity Biotech, Dublin, Ireland). For this, fifty microliters of sample are diluted to 1/10th in imidazole buffer (Trinity Biotech, Bray, Ireland). […] The coagulation time is measured by means of a coagulometer using an MDA II® or else Destiny Max automated device (Trinity Biotech, Bray, Ireland). […]

For data set [3] the following is noted: versus plasma FIX (Mononine); cited from earlier work.
For data set [4] the following is noted: hemophilia B patients, versus plasma FIX (Mononine); cited from earlier work.
For data set [5], the system named is factor IX-deficient plasma. The conditions noted are these: FIX from HepG2 cells with viral vectors, published by Chen et al.; cited from earlier work.
Data set [6] concerns factor IX-deficient plasma. Briefly: aPTT coagulation test under the conditions of Chen et al., related to standard plasma values, converted into ng/ml. The class given is biochemical. The conditions noted are these: Huh7-CD4 clone. The procedure:
A comparative study with respect to the works of Chen et al., 1997, was carried out. In these experiments, 1×10^6 cells of the Huh7-CD4 clone were seeded into 6-well plates. The following day, the medium was renewed and left in the presence of the producer cells for 24 hours. The FIX concentrations in this medium are determined using the Asserachrom IX:Ag ELISA kit (Diagnostica Stago). The activity of the FIX secreted into this medium is determined in a one-step coagulation test (aPTT) with an MDA II or else Destiny Max coagulometer (Trinity Biotech, Dublin, Ireland) as described above. The activity of the factor IX is determined from standard plasma values (Standard Human Plasma, Siemens Marburg, Germany, calibrated against a WHO—World Health Organization—standard) by means of a log-log curve. […] The specific activity of the FIX resulting from the Huh7-CD4 clone is calculated according to the ratio between the coagulant activity read for the sample, related back to the standard plasma values, and its FIX concentration (aPTT/ELISA).
Moreover, the specific activity of the FIX produced by the Huh7-CD4 line was determined according to the conditions determined by Chen et al. The ratio between the concentrations measured by the aPTT method (ng/ml) and measured by ELISA (ng/ml) was calculated on the basis of five different assays. […]

Like-named read-outs stand apart in the source and are kept apart here.

Turning to `CC(C)[C@H](O)[C@@]12NC(=O)[C@H](C)[C@@H]1OC2=O` [Beta-lactone, clasto-lactacystin β-lactone], the “Intracellular FIX level (mean ± SE)” value was 50.1% +/− 25.8 in data set [1] and “no significant effect” in data set [1] (listed as clasto-lactacystin β-lactone).

As for `C[C@H]1CCC/C=C/[C@@H]2C[C@H](O)C[C@H]2[C@H](O)/C=C/C(=O)O1` [Brefeldin A, brefeldin A], in data set [1], the “Intracellular FIX level (mean ± SE)” value is 254.4% +/− 21.4. Also, the “increase of intracellular FIXwt level compared with that without inhibitor” value in data set [1] (after incubation with brefeldin A, p=0.005) came to 370%.

“Benefix: marketed recombinant FIX (Wyeth) synthesized by CHO cells stably transfected with the FIX cDNA”: the “specific activity relative to that of Benefix” value in data set [2] (culture supernatants of transiently transfected Huh7 cells, 36 h after transfection, Benefix = 100%) is given as 100%. The “specific activity compared with FIX of plasma origin” value in data set [3] is “equivalent”. In data set [4], the “half-life in the blood stream compared with plasma FIX” value is given as “similar”.

On to “FIX/GCF9SN-MPSV: FIX produced with a viral vector in the HepG2 hepatocyte cell line by Chen et al., 1997”, for which, in data set [5], the “% specific activity aPTT/ELISA” value is recorded as 73.5 +/− 19.7% and the aPTT was 55 ± 15 ng/mL.

“FIX/GCNCF9: FIX produced with a viral vector in the HepG2 hepatocyte cell line by Chen et al., 1997”: in data set [5], the “% specific activity aPTT/ELISA” value is 93.7 +/− 11% and the aPTT was 120 ± 14 ng/mL.

Consider “FIXwt: recombinant human factor IX expressed in the human hepatocyte cell line Huh7 (transient, or stable clone Huh7-CD4) and secreted into the supernatant”, for which the “specific activity improved by a factor” value in data set [2] (transiently transfected Huh7 cells, versus Benefix) is 1.7. For the same compound, the aPTT in data set [6] (24 hours/10^6 cells, 5 μg/ml of FIX = 100%) worked out at 740 ± 59 ng/mL. The “% specific activity aPTT/ELISA” value in data set [6] (related to standard plasma, five assays) is given as 161 +/− 37%.

The values are drawn from patent publication US20120270300A1, “PRODUCTION OF RECOMBINANT FACTOR IX IN A HUMAN HEPATOCYTE CELL LINE” (Universite Claude Bernard Lyon I, priority 2009, published 2012).
